Data published in patent publication US20220323443A1, “COMBINATION THERAPY FOR CANCER TREATMENT” (TAKEDA PHARMACEUTICAL COMPANY LIMITED, priority 2019, published 2022).
Where a name gives a salt, the structure may show the parent alone. Read-outs that look alike come from different tables or passages of the source.

Columns and labels:
Experiment in all cases: In vitro combination study with Compound 1, Cell Titer-Glo (ATP) cell viability, 72 h;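 on Call, anti-proliferative effect of combination with Compound 1, A549: Ten-by-ten dose matrices of the two agents in duplicate, compounds added 16 h post-plating, activity relative to DMSO vehicle wells, call reflects synergy evaluation from luminescence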;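 on Call, anti-proliferative effect of combination with Compound 1, COLO205: Ten-by-ten dose matrices of both agents in duplicate plus single-agent dilutions, luminescent ATP read-out, percent activity per well relative to DMSO vehicle wells, synergy call from these matrices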;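 on Call, anti-proliferative effect of combination with Compound 1, H460: Ten-by-ten dose matrices of both drugs alongside single-agent dilutions, luminescence read 72 hours after compound addition, percent activity per well versus vehicle (DMSO) plate controls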;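 on Call, anti-proliferative effect of combination with Compound 1, HCT116: combination call from 10×10 dose matrices in duplicate, graded by synergy, with percent activity per well relative to DMSO vehicle controls on the same plate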;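 on Call, anti-proliferative effect of combination with Compound 1, SW620: Ten-by-ten dose matrices of both drugs in 384-well plates, luminescent ATP read-out, synergy evaluated against single-agent and DMSO vehicle controls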
COLO205 cancer cells = type: cell-based, human
Method: (§1) Each combination pair was evaluated in an individual 384-well plate which contained variable doses of both compounds as single agents, as well as two, ten-by-ten matrices (in duplicate) that contained mixtures of the two test compounds. In brief, compounds were added to the cell test plates 16 hours after cell plating and then assessed for viability 72 hours later. Continuous cultures of tumor cells were maintained under standard cell culturing conditions (i.e. in a humidified chamber set at 37° C., containing atmosphere 5% carbon dioxide). […] Seventy-two hours after compound addition, ATP levels were measured to assess cell viability. Plating densities were chosen to ensure optimal linear growth over the 72 hour period.
(§2) Compound dilution and compound delivery to the assay plates were done on HighRes Robotic System (HighRes Biosolutions, Woburn, Mass., USA) with Echo™ Liquid Handler (Labcyte, Sunnyvale, Calif., USA). […] Next, these were used for compound transfer into cell assay plates. All wells were back-filled to give a constant percentage of DMSO.
(§3) The final DMSO concentration was held constant in all wells across the plate and was maintained at less than 0.5%. […] Cells treated with vehicle (DMSO) in two rows, or single compound serial dilutions in one plate columns/row served as the untreated control and single compound controls, respectively.
(§4) Compound activity in A549, COLO205, H460, HCT116, SW48, SW620 cancer cell lines was assessed using Cell Titer-Glo® (Promega [Madison, Wis., USA]). After 72 hours incubation, the plates were treated as per package insert protocol for the Promega Luminescence ATP Detection Systems. Briefly, 25 μL of cell lysis/substrate solution (provided in kit form) was added to each well and the plate was incubated at room temperature for 10 minutes. Luminescence was measured using a PHERAstar multi-label counter (BMG Labtech [Ortenberg, Germany]) or LEADseeker (GE Healthcare Life Sciences [Piscataway, N.J., USA]).
(§5) Numerical luminescence values were analyzed to generate EC50 curves and evaluate synergy. Raw Data reader files were uploaded along with automation workfiles that defined the plate and well contents. Percent activities were calculated for each well versus plate controls.
(§6) Each plate representing a single drug combination was analyzed separately. First, the viability measurements were normalized by scaling the data so that the median of the negative controls was 0 and the median of the positive controls was 100.
(§7) For the combination analysis, a response surface model was used to describe the relationship between the normalized viability and the drug concentrations. The data were fit to the model by minimizing the residual sum of squares. Based on the fitted response surface, plots of constant viability, called isobolograms, were produced.
(§8) The Combination Index and Nonlinear Blending were used as measures of drug synergy. To calculate Combination Index the 50% isobologram (which is the dose contour that has 50% viability) was used. […] A standard procedure was created to produce a call in order to characterize the viability effects for each combination (synergy, additivity, subadditivity, or antagonism). If the Combination Index existed then these measures were used to make the call.

A549 cancer cells = type: cell-based
Method: as §1, §2, §3, §4, §5, §6, §7, §8

H460 cancer cells = type: cell-based
Method: as §1, §2, §3, §4, §5, §6, §7, §8

HCT116 cancer cells = type: cell-based
SW620 cancer cells = type: cell-based
SW48 cancer cells = type: cell-based
Method: as §1
Compound dilution and compound delivery to the assay plates were done on HighRes Robotic System (HighRes Biosolutions, Woburn, Mass., USA) with Echo™ Liquid Handler (Labcyte, Sunnyvale, Calif., USA). First, 384-well low dead volume (LDV) plates containing DMSO (Appendix B) and 10 mM compound stock solutions were used to create the required intermediate compound dilution plates. Next, these were used for compound transfer into cell assay plates. All wells were back-filled to give a constant percentage of DMSO.
as §3, §4, §5, §6, §7, §8

[1] = Table 5 drug combined with Compound 1, 72 h
[2] = DNA damaging agent combined with Compound 1, 72 h

| Compound | Call, anti-proliferative effect of combination with Compound 1, COLO205 (COLO205 cancer cells; [1]) | Call, anti-proliferative effect of combination with Compound 1, A549 (A549 cancer cells; [1]) | Call, anti-proliferative effect of combination with Compound 1, H460 (H460 cancer cells; [1]) | Call, anti-proliferative effect of combination with Compound 1, HCT116 (HCT116 cancer cells; [1]) | Call, anti-proliferative effect of combination with Compound 1, SW620 (SW620 cancer cells; [1]) | Call, anti-proliferative effect of combination with Compound 1, SW48 (SW48 cancer cells; [1]) | Call, anti-proliferative effect of combination with Compound 1, H460 (H460 cancer cells; [2]) | Call, anti-proliferative effect of combination with Compound 1, HCT116 (HCT116 cancer cells; [2]) | Call, anti-proliferative effect of combination with Compound 1, SW48 (SW48 cancer cells; [2]) | Call, anti-proliferative effect of combination with Compound 1, SW620 (SW620 cancer cells; [2]) | also measured |
| --- | --- | --- | --- | --- | --- | --- | --- | --- | --- | --- | --- |
| Nc1ncn([C@@H]2O[C@H](CO)[C@@H](O)[C@H]2O)c(=O)n1 [Azacitidine] | Additivity (0.7 to 1.3) | Additivity (0.7 to 1.3) | Additivity (0.7 to 1.3) | Additivity (0.7 to 1.3) | Additivity (0.7 to 1.3) | Additivity (0.7 to 1.3) |  |  |  |  |  |
| Cn1c(=O)n(-c2ccc(C(C)(C)C#N)cc2)c2c3cc(-c4cnc5ccccc5c4)ccc3ncc21 [BEZ-235] | Additivity (0.7 to 1.3) | Additivity (0.7 to 1.3) | Additivity (0.7 to 1.3) | Additivity (0.7 to 1.3) | Subadditivity (1.3 to 2) | Antagonism (>2) |  |  |  |  |  |
| O=C(O)CCCc1ccc(N(CCCl)CCCl)cc1 [Chlorambucil] |  |  |  |  |  |  | Additivity (0.7 to 1.3) | Additivity (0.7 to 1.3) | Additivity (0.7 to 1.3) |  | Call, anti-proliferative effect of combination with Compound 1, A549 (A549 cancer cells): Additivity (key: Inconclusive: Any; Additivity: 0.7 to 1.3; Synergy: 0 to 0.7; Subadditivity: 1.3 to 2; Antagonism: >2) |
| COc1cccc2c1C(=O)c1c(O)c3c(c(O)c1C2=O)C[C@@](O)(C(C)=O)C[C@@H]3O[C@H]1C[C@H](N)[C@H](O)[C@H](C)O1 [Daunorubicin] |  |  |  |  |  |  |  |  |  |  | Call, anti-proliferative effect of combination with Compound 1, COLO205 (COLO205 cancer cells): Additivity (key: Inconclusive: Any; Additivity: 0.7 to 1.3; Synergy: 0 to 0.7; Subadditivity: 1.3 to 2; Antagonism: >2); Call, anti-proliferative effect of combination with Compound 1, A549 (A549 cancer cells): Additivity (key: Inconclusive: Any; Additivity: 0.7 to 1.3; Synergy: 0 to 0.7; Subadditivity: 1.3 to 2; Antagonism: >2); Call, anti-proliferative effect of combination with Compound 1, H460 (H460 cancer cells): Additivity (key: Inconclusive: Any; Additivity: 0.7 to 1.3; Synergy: 0 to 0.7; Subadditivity: 1.3 to 2; Antagonism: >2); Call, anti-proliferative effect of combination with Compound 1, HCT116 (HCT116 cancer cells): Synergy (key: Inconclusive: Any; Additivity: 0.7 to 1.3; Synergy: 0 to 0.7; Subadditivity: 1.3 to 2; Antagonism: >2); Call, anti-proliferative effect of combination with Compound 1, SW620 (SW620 cancer cells): Synergy (key: Inconclusive: Any; Additivity: 0.7 to 1.3; Synergy: 0 to 0.7; Subadditivity: 1.3 to 2; Antagonism: >2); Call, anti-proliferative effect of combination with Compound 1, SW48 (SW48 cancer cells): Additivity (key: Inconclusive: Any; Additivity: 0.7 to 1.3; Synergy: 0 to 0.7; Subadditivity: 1.3 to 2; Antagonism: >2) |
| Nc1ncn([C@H]2C[C@H](O)[C@@H](CO)O2)c(=O)n1 [Decitabine] |  |  |  |  |  |  | Synergy (0 to 0.7) | Synergy (0 to 0.7) | Additivity (0.7 to 1.3) | Additivity (0.7 to 1.3) |  |
| Nc1ccccc1NC(=O)c1ccc(CNC(=O)OCc2cccnc2)cc1 [Entinostat] | Subadditivity (1.3 to 2) | Synergy (0 to 0.7) | Synergy (0 to 0.7) | Additivity (0.7 to 1.3) | Synergy (0 to 0.7) | Subadditivity (1.3 to 2) |  |  |  |  |  |
| COc1cc([C@@H]2c3cc4c(cc3[C@@H](O[C@@H]3O[C@@H]5CO[C@@H](C)O[C@H]5[C@H](O)[C@H]3O)[C@H]3COC(=O)[C@H]23)OCO4)cc(OC)c1O [Etoposide] | Synergy (0 to 0.7) | Synergy (0 to 0.7) | Synergy (0 to 0.7) | Synergy (0 to 0.7) | Synergy (0 to 0.7) | Synergy (0 to 0.7) |  |  |  |  |  |
| CS(=O)(=O)N1CCN(Cc2cc3nc(-c4cccc5[nH]ncc45)nc(N4CCOCC4)c3s2)CC1 [GDC-0941] | Additivity (0.7 to 1.3) | Additivity (0.7 to 1.3) | Synergy (0 to 0.7) | Synergy (0 to 0.7) | Additivity (0.7 to 1.3) |  |  |  |  |  |  |
| N[C@@H](Cc1ccc(N(CCCl)CCCl)cc1)C(=O)O [Melphalan] |  |  |  |  |  |  |  | Synergy (0 to 0.7) | Additivity (0.7 to 1.3) | Synergy (0 to 0.7) | Call, anti-proliferative effect of combination with Compound 1, A549 (A549 cancer cells): Synergy (key: Inconclusive: Any; Additivity: 0.7 to 1.3; Synergy: 0 to 0.7; Subadditivity: 1.3 to 2; Antagonism: >2) |
| CO[C@@]12[C@H](COC(N)=O)C3=C(C(=O)C(C)=C(N)C3=O)N1C[C@@H]1N[C@@H]12 [Mitomycin C] |  |  |  |  |  |  | Synergy (0 to 0.7) | Synergy (0 to 0.7) | Synergy (0 to 0.7) | Synergy (0 to 0.7) | Call, anti-proliferative effect of combination with Compound 1, COLO205 (COLO205 cancer cells; [2]): Subadditivity (1.3 to 2); Call, anti-proliferative effect of combination with Compound 1, A549 (A549 cancer cells; [2]): Synergy (0 to 0.7) |
| O=C1c2c(O)ccc(O)c2C(=O)c2c(NCCNCCO)ccc(NCCNCCO)c21 [Mitoxantrone hydrochloride] |  |  |  |  |  |  | Synergy (0 to 0.7) | Synergy (0 to 0.7) | Additivity (0.7 to 1.3) | Synergy (0 to 0.7) | Call, anti-proliferative effect of combination with Compound 1, COLO205 (COLO205 cancer cells; [2]): Synergy (0 to 0.7); Call, anti-proliferative effect of combination with Compound 1, A549 (A549 cancer cells; [2]): Synergy (0 to 0.7) |
| COC1=CC(c2cc3ccccc3[nH]2)=N/C1=C\c1[nH]c(C)cc1C [Obatoclax] | Additivity (0.7 to 1.3) | Additivity (0.7 to 1.3) | Synergy (0 to 0.7) | Additivity (0.7 to 1.3) | Synergy (0 to 0.7) | Additivity (0.7 to 1.3) |  |  |  |  |  |
| Cc1[nH]c2ccccc2c1CCNCc1ccc(/C=C/C(=O)NO)cc1 [Panobinostat] | Subadditivity (1.3 to 2) | Additivity (0.7 to 1.3) | Additivity (0.7 to 1.3) | Additivity (0.7 to 1.3) | Additivity (0.7 to 1.3) |  |  |  |  |  |  |
| C/C=C(/C)C(=O)O[C@H]1C(C)=C2[C@H]([C@@H]1OC(=O)CCCCCCC)[C@@](C)(OC(C)=O)C[C@H](OC(=O)CCC)[C@@]1(O)[C@H]2OC(=O)[C@@]1(C)O [Thapsigargin] | Additivity (0.7 to 1.3) | Additivity (0.7 to 1.3) | Additivity (0.7 to 1.3) | Additivity (0.7 to 1.3) | Additivity (0.7 to 1.3) |  |  |  |  |  |  |
| S=P(N1CC1)(N1CC1)N1CC1 [Thio-tepa] |  |  |  |  |  |  | Additivity (0.7 to 1.3) | Synergy (0 to 0.7) | Additivity (0.7 to 1.3) | Synergy (0 to 0.7) | Call, anti-proliferative effect of combination with Compound 1, A549 (A549 cancer cells): Additivity (key: Inconclusive: Any; Additivity: 0.7 to 1.3; Synergy: 0 to 0.7; Subadditivity: 1.3 to 2; Antagonism: >2) |
| CC[C@]1(O)C[C@H]2CN(CCc3c([nH]c4ccccc34)[C@@](C(=O)OC)(c3cc4c(cc3OC)N(C=O)[C@H]3[C@@](O)(C(=O)OC)[C@H](OC(C)=O)[C@]5(CC)C=CCN6CC[C@]43[C@@H]65)C2)C1 [Vincristine sulfate] | Additivity (0.7 to 1.3) | Subadditivity (1.3 to 2) | Additivity (0.7 to 1.3) | Additivity (0.7 to 1.3) | Subadditivity (1.3 to 2) |  |  |  |  |  |  |
